According to article PMC4147775, “Stimulation of Hepatic Apolipoprotein A-I Production by Novel Thieno-Triazolodiazepines: Roles of the Classical Benzodiazepine Receptor, PAF Receptor, and Bromodomain Binding” (Lipid insights, 2013):
Where two headings read alike, the source gives them in different places.

Columns and labels:
[1] = target: T1, BRD2(1) (Homo sapiens, UniProt P25440); test: Protein stability shift assay (thermal shift), BRD2(1); type: binding; conditions: 10 μM ligand
T1 construct: the second as compared with the first bromodomain of these BRDs
T1 sequence (P25440 74-180 limits assumed): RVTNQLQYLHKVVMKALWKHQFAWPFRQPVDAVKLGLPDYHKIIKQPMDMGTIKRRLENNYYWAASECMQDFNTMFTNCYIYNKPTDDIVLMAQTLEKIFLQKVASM

[2] = target: T2, BRD2(2) (Homo sapiens, UniProt P25440); test: Protein stability shift assay (thermal shift), BRD2(2); type: binding; conditions: 10 μM ligand
T2 construct: the second as compared with the first bromodomain of these BRDs
T2 sequence (P25440 344-453 limits assumed): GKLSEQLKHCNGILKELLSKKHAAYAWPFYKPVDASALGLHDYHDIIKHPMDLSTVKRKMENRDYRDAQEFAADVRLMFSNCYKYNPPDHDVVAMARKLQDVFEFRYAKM

[3] = target: T3, BRD3(1) (Homo sapiens, UniProt Q15059); test: Protein stability shift assay (thermal shift), BRD3(1); type: binding; conditions: 10 μM ligand
T3 construct: the second as compared with the first bromodomain of these BRDs
T3 sequence (Q15059 34-140 limits assumed): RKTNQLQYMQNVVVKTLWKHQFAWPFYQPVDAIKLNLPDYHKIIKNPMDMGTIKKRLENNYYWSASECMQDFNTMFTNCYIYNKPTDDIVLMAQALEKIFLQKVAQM

[4] = target: T4, BRD4(2) (Homo sapiens, UniProt O60885); test: Protein stability shift assay (thermal shift), BRD4(2); type: binding; conditions: 10 μM ligand
T4 construct: the second as compared with the first bromodomain of these BRDs

[5] = target: T5, BRDT(1) (Homo sapiens, UniProt Q58F21); test: Protein stability shift assay (thermal shift), BRDT(1); type: binding; conditions: 10 μM ligand
T5 construct: the second as compared with the first bromodomain of these BRDs

[6] = target: T6, BRDT(2) (Homo sapiens, UniProt Q58F21); test: Protein stability shift assay (thermal shift), BRDT(2); type: binding; conditions: 10 μM ligand
T6 construct: the second as compared with the first bromodomain of these BRDs

[7] = target: T7, BAZ2B (Homo sapiens, UniProt Q9UIF8); test: Protein stability shift assay (thermal shift), BAZ2B; type: binding; conditions: 10 μM ligand
T7 construct: Thermal shift (Δtm^obs) of human bromodomains in the presence of 10 μM compound
T7 sequence (Q9UIF8 2060-2164 limits assumed): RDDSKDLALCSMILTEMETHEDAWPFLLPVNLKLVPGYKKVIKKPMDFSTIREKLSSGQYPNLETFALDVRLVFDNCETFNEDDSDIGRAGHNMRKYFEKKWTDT

[8] = target: T8, CREBBP (Homo sapiens, UniProt Q92793); test: Protein stability shift assay (thermal shift), CREBBP; type: binding; conditions: 10 μM ligand
T8 construct: Thermal shift (Δtm^obs) of human bromodomains in the presence of 10 μM compound
T8 sequence (Q92793 1085-1192 limits assumed): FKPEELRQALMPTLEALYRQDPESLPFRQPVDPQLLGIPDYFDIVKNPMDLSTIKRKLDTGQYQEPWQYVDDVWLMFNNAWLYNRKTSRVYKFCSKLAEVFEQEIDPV

[9] = target: T9, PB1(5) (Homo sapiens, UniProt Q86U86); test: Protein stability shift assay (thermal shift), PB1(5); type: binding; conditions: 10 μM ligand
T9 construct: Thermal shift (Δtm^obs) of human bromodomains in the presence of 10 μM compound
T9 sequence (Q86U86 653-763 limits assumed): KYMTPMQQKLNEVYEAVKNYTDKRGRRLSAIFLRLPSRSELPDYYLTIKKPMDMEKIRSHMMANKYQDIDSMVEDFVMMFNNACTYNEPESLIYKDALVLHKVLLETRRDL

[10] = target: T10, PCAF (Homo sapiens, UniProt Q92831); test: Protein stability shift assay (thermal shift), PCAF; type: binding; conditions: 10 μM ligand
T10 construct: Thermal shift (Δtm^obs) of human bromodomains in the presence of 10 μM compound
T10 sequence (Q92831 723-827 limits assumed): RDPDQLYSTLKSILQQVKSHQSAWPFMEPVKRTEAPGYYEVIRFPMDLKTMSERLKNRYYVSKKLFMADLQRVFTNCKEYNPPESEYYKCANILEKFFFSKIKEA

[11] = system: apoA-I production by primary human hepatocytes; test: apoA-I production by primary human hepatocytes (ELISA); type: cell-based; conditions: cultured human hepatocytes, highest concentration tested (100 μM)
[12] = system: apoA-I production by Hep-G2 cells; set-up: method as in PMID 20513599; conditions: HepG2 cells, 40 μM; cited from earlier work
[13] = some of the participants; cited from earlier work
[14] = system: fibrosarcoma cells (HT1080); test: Cytotoxicity: mitochondrial membrane potential (TMRM)
[15] = target: BRD3(2) (Homo sapiens, UniProt Q15059); test: Protein stability shift assay (thermal shift), BRD3(2); type: binding; set-up: the second as compared with the first bromodomain of these BRDs; conditions: 10 μM ligand
BRD3(2), sequence (Q15059 306-415 limits assumed): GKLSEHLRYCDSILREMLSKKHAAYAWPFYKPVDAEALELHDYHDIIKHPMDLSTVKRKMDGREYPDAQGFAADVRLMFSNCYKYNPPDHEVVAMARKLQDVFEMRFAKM

[16] = target: BRD4(1) (Homo sapiens, UniProt O60885); test: Protein stability shift assay (thermal shift), BRD4(1); type: binding; set-up: the second as compared with the first bromodomain of these BRDs; conditions: 10 μM ligand

COc1cc(OC)c2c(=O)[nH]c(-c3cc(C)c(OCCO)c(C)c3)nc2c1 [RVX-208, reference compound]
Thermal shift (ΔTm obs) BRD2(1) [1]: 0.9 | Thermal shift (ΔTm obs) BRD2(2) [2]: 4.0 | Thermal shift (ΔTm obs) BRD3(1) [3]: 0.8 | Thermal shift (ΔTm obs) BRD4(2) [4]: 3.4 | Thermal shift (ΔTm obs) BRDT(1) [5]: 0.6 | Thermal shift (ΔTm obs) BRDT(2) [6]: 4.0 | Thermal shift (ΔTm obs) BAZ2B [7]: −0.2 | Thermal shift (ΔTm obs) CREBBP [8]: −0.2 | Thermal shift (ΔTm obs) PB1(5) [9]: 0.0 | Thermal shift (ΔTm obs) PCAF [10]: −0.4 | increase of apoA-I production [11]: up to 80% | stimulation of apoA-I protein production [12]: 2 fold | liver safety in human study [13]: signs of liver damage | IC50 ([14]; Homo sapiens, HT-1080, 72 h, read-out: mitochondrial membrane potential in fibrosarcoma cells, IC50, 72 hours): 50 µM | IC50 ([14]; read-out: mitochondrial membrane potential in fibrosarcoma cells, IC50, 72 hours): 49 µM | Thermal shift (ΔTm obs) BRD3(2) [15]: 4.0 | Thermal shift (ΔTm obs) BRD4(1) [16]: 1.3
